# From patent US20180271925A1, “Method For Improving Gingivitis And Periodontitis By Antibacterial, Antioxidant And Anti-Inflammatory Effects And Inhibition Of Alveolar Bone Loss Of Complex Extracts Of Moringa Leaf And Eucommia Bark” (HLSCIENCE CO., LTD., priority 2017, published 2018)
# What was measured:
# Assay type in all cases: in vivo, rat
# [1] = tested on: rats with ligature-induced experimental periodontitis (EPD); experiment: Alveolar bone volume in EPD rats, 14 natural substance extracts; conditions: extract 200 mg/kg (IND 5 mg/kg) oral once a day for 10 days, FIG. 2
# Description: (§1) The gingivitis- and periodontitis-improving effect was evaluated using rats with ligature-induced experimental periodontitis (EPD). 24 hours after the ligature of the cervical portion, each extract dissolved in sterilized distilled water was orally administered at a dosage of 5 mL/kg (200 mg/kg) once a day for 10 days and the change in the amount of interleukin (IL)-1β in the gingival tissue and the alveolar bone volume was observed along with histopathological changes. A group to which 5 mg/kg indomethacin (IND), which is a nonsteroidal anti-inflammatory drug (NSAID), was orally administered was used as a control group.
# Each of the concentrated pomegranate powder and the 13 extracts containing moringa leaf (balloon flower root, gardeniae fructus, scutellariae radix, moringa, lotus leaf, Chinese mulberry leaf, ginger, peony root, achyranthis radix, eucommia bark, red clover, dandelion and dandelion root) was dissolved in sterilized distilled water to a concentration of 40 mg/mL and orally administered at a dosage of 5 mL/kg (200 mg/kg) from 24 hours after the ligature of the cervical portion once a day for 10 days. […]
# Alveolar bone loss was measured according to the method of Crawford et al. [1987]. […] The area between the end of the gingiva and the end of the incisor between the two teeth subjected to EPD was expressed as mm/rat.
# [2] = tested on: interleukin (IL)-1β in the gingival tissue; experiment: IL-1β content in gingival tissue of EPD rats, 14 natural substance extracts; conditions: extract 200 mg/kg (IND 5 mg/kg) oral once a day for 10 days, FIG. 1
# Description: as §1, with “group. […]” for “group.”
# After EPD for 11 days, the gingival tissue was homogenized and subjected to measurement with the IL-1β rat ELISA kit (Abcam, Cambridge, UK). […] After adding 50 μL of a stop solution to each well, absorbance was measured with a microplate reader (Tecan, Mannedofr, Switzerland) at a wavelength of 450 nm.
# [3] = tested on: osteoclasts in alveolar bone; experiment: Number of osteoclasts in alveolar bone of EPD rats (TRAP staining); conditions: dosage of 200 mg/kg oral once a day for 10 days, FIG. 7
# Description: The gingivitis- and periodontitis-improving effect was evaluated using rats with ligature-induced experimental periodontitis (EPD). 9 complex compositions of the moringa leaf extract (MF) and the eucommia bark extract (EC) (MF:EC=1:1, 1:2, 1:4, 1:6, 1:8, 2:1, 4:1, 6:1 and 8:1; mg:mg) dissolved in sterilized distilled water were orally administered at a dosage of 5 mL/kg (200 mg/kg) once a day for 10 days and body weight, alveolar bone, number of viable aerobic bacteria in the oral tissue, interleukin (IL)-1β and tumor necrosis factor (TNF)-α contents in the gingiva, lipid peroxidation (malondialdehyde (MDA) content) and change in the activity of inducible nitric oxide synthase (iNOS) and myeloperoxidase (MPO) were observed together with histopathological changes. […] A group to which 5 mg/kg indomethacin (IND), which is a nonsteroidal anti-inflammatory drug (NSAID), was orally administered was used as a control group. […]
# The number of osteoclasts was determined by staining with TRAP and counting the number of TRAP-positive multinucleated cells. […] The number of TRAP-positive multinucleated osteoclasts (having 3 or more nuclei) formed on the surface of the alveolar bone was counted using an optical microscope.
structure (smiles),measurement,setting,value
"COc1ccc2c(c1)c(CC(=O)O)c(C)n2C(=O)c1ccc(Cl)cc1 [IND, indomethacin]",change in alveolar bone volume as compared to the EPD control group,[1],significantly increase (p<0.01 or p<0.05)
same,change in IL-1β content in the gingival tissue as compared to the EPD control group,[2],significantly decrease (p<0.01)
same,change in the number of osteoclasts as compared to the EPD control group,[3],−50.19%
